Assay: xn = mol fraction of the nth substance listed
Details: Liquid, Vibrating tube method

CCCCCCCCCC [decane] + O=C=O
Details | mass density [kg/m3]
313.11 K, 20002 kPa, x2 = 0.9663 | 840.48
313.11 K, 20018 kPa, x2 = 0.4536 | 757.13
313.11 K, 21015 kPa, x2 = 0.9663 | 848.66
313.11 K, 21018 kPa, x2 = 0.4536 | 758.18
313.11 K, 22006 kPa, x2 = 0.4536 | 759.18
313.11 K, 22023 kPa, x2 = 0.9663 | 856.28
313.11 K, 23003 kPa, x2 = 0.4536 | 760.18
313.11 K, 23021 kPa, x2 = 0.9663 | 863.4
313.11 K, 24023 kPa, x2 = 0.4536 | 761.23
313.11 K, 24063 kPa, x2 = 0.9663 | 870.36
313.11 K, 24976 kPa, x2 = 0.9663 | 876.18
313.11 K, 25010 kPa, x2 = 0.4536 | 762.23
313.12 K, 12053 kPa, x2 = 0.8114 | 782.82
313.12 K, 13017 kPa, x2 = 0.8114 | 785.68
313.12 K, 14021 kPa, x2 = 0.8114 | 788.54
313.12 K, 15103 kPa, x2 = 0.8114 | 791.51
313.12 K, 15990 kPa, x2 = 0.8114 | 793.84
313.12 K, 16981 kPa, x2 = 0.8114 | 796.39
313.12 K, 17993 kPa, x2 = 0.8114 | 798.92
313.12 K, 19038 kPa, x2 = 0.8114 | 801.45
313.12 K, 20009 kPa, x2 = 0.8114 | 803.73
313.12 K, 21018 kPa, x2 = 0.8114 | 806.06
313.12 K, 22020 kPa, x2 = 0.8114 | 808.29
313.12 K, 22999 kPa, x2 = 0.8114 | 810.42
313.12 K, 24019 kPa, x2 = 0.8114 | 812.6
313.12 K, 25017 kPa, x2 = 0.8114 | 814.7
323.04 K, 11016 kPa, x2 = 0.9663 | 580.54
323.04 K, 12005 kPa, x2 = 0.8114 | 762.12
323.04 K, 12030 kPa, x2 = 0.9663 | 636.15
323.04 K, 13009 kPa, x2 = 0.8114 | 765.56
323.04 K, 13015 kPa, x2 = 0.9663 | 672.02
323.04 K, 14007 kPa, x2 = 0.9663 | 698.83
323.04 K, 14026 kPa, x2 = 0.8114 | 769
323.04 K, 15008 kPa, x2 = 0.8114 | 772.02
323.04 K, 15021 kPa, x2 = 0.9663 | 721.04
323.04 K, 16018 kPa, x2 = 0.9663 | 739.12
323.04 K, 16046 kPa, x2 = 0.8114 | 775.13
323.04 K, 17018 kPa, x2 = 0.8114 | 777.99
323.04 K, 17026 kPa, x2 = 0.9663 | 754.76
323.04 K, 18002 kPa, x2 = 0.8114 | 780.75
323.04 K, 18010 kPa, x2 = 0.9663 | 768.22
323.04 K, 19001 kPa, x2 = 0.9663 | 780.23
323.04 K, 19025 kPa, x2 = 0.8114 | 783.58
323.04 K, 20025 kPa, x2 = 0.9663 | 791.43
323.04 K, 20031 kPa, x2 = 0.8114 | 786.22
323.04 K, 21021 kPa, x2 = 0.9663 | 801.33
323.04 K, 21047 kPa, x2 = 0.8114 | 788.86
323.04 K, 21988 kPa, x2 = 0.8114 | 791.16
323.04 K, 22023 kPa, x2 = 0.9663 | 810.55
323.04 K, 22999 kPa, x2 = 0.8114 | 793.66
323.04 K, 23026 kPa, x2 = 0.9663 | 819.05
323.04 K, 24016 kPa, x2 = 0.8114 | 796.11
323.04 K, 24036 kPa, x2 = 0.9663 | 827.07
323.04 K, 25030 kPa, x2 = 0.9663 | 834.47
323.04 K, 25054 kPa, x2 = 0.8114 | 798.55
323.05 K, 1989 kPa, x2 = 0.0551 | 710.33
323.05 K, 3015 kPa, x2 = 0.0551 | 711.28
323.05 K, 3984 kPa, x2 = 0.0551 | 712.18
323.05 K, 5002 kPa, x2 = 0.0551 | 713.14
323.05 K, 6010 kPa, x2 = 0.0551 | 714.04
323.05 K, 7043 kPa, x2 = 0.0551 | 714.97
323.05 K, 8018 kPa, x2 = 0.0551 | 715.86
323.05 K, 9009 kPa, x2 = 0.0551 | 716.73
323.05 K, 10008 kPa, x2 = 0.0551 | 717.66
323.05 K, 11036 kPa, x2 = 0.0551 | 718.47
323.05 K, 11995 kPa, x2 = 0.0551 | 719.35
323.05 K, 13035 kPa, x2 = 0.0551 | 720.16
